# Activity calls are given as the source filed them.
# Tests used:
# [1] = system: Streptococcus sp. 'group A'; assay: Streptococcus pyogenes SK(-)GAS viability under kanamycin – luminescence, BacTiterGlo, confirmation, counter-screen for streptokinase expression inhibitor project, dose response (AID 1900); assay type: functional, organism-based
# Streptokinase A = molecular target: T1, Streptokinase A (Streptococcus pyogenes serotype M1, UniProt P10520); assay: viability-normalized secreted streptokinase activity reduction – plasminogen activation absorbance, OD405, dose response (AID 1914); assay type: functional, Streptococcus pyogenes M1 GAS;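 also: secreted streptokinase activity via plasminogen activation per viability signal from cell pellet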
# T1 sequence (P10520 whole entry): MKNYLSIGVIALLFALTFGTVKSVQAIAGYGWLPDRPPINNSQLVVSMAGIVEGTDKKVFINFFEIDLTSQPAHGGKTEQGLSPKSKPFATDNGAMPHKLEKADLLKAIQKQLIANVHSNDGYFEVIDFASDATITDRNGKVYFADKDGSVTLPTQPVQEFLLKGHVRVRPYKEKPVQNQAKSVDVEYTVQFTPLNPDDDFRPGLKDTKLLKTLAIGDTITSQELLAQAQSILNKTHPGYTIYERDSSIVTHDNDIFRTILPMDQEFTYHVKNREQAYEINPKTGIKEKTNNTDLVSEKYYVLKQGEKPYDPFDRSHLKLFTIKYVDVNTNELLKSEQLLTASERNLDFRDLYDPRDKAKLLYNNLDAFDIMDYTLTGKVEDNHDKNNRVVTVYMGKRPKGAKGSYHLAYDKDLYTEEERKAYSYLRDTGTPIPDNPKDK
# [2] = Trypanosoma cruzi growth suppression in host cells – NIH3T3 host cells, beta-gal luminescence, confirmation (AID 2044); assay type: functional, cell-based;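 also: intracellular parasites grown in NIH/3T3 mouse fibroblasts as host cells; luminescent beta-galactosidase reporter signal from transgenic T. cruzi replicating inside host cells; inhibitors lower the luminescence signal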
# [3] = NIH3T3 cell viability loss – ATP luminescence, mouse fibroblasts, counter-screen, dose response (AID 2010); assay type: functional, cell-based;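 also: cells exposed to compound for about 90 hours before reading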
# Streptococcus = assay: GAS UMAA2166 growth inhibition – luminescence, BacTiterGlo, counter-screen for streptokinase expression inhibitor project, dose response (AID 1915); assay type: functional, organism-based;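 also: potency for reduction of bacterial viability or growth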
# [4] = Luminescence Cell-Based Dose Response HTS to Identify Activators of Luciferase Translation or Activity in H4 […] Cells. [Related pubchem assays: 1829 (Project Summary), 1814 (Primary HTS)]; assay type: functional
# H4 = assay: Luminescence Cell-Based Dose Response HTS to Identify Activators of 5'UTR Stem-Loop Driven Prion Protein mRNA Translation in H4 Neuroglioblastoma Cells. [Related pubchem assays: 1829 (Project Summary), 1814 (Primary HTS)]; assay type: functional; conditions: Homo sapiens
# [5] = molecular target: T2, Rac GTPase-activating protein 1 (Homo sapiens, UniProt Q9H0H5); assay: blockers of MgcRacGAP-driven Rac1 GTP hydrolysis – biochemical, ADP Hunter fluorescence, primary and confirmatory, confirmation (AID 624330); assay type: functional
# T2 sequence (Q9H0H5 whole entry): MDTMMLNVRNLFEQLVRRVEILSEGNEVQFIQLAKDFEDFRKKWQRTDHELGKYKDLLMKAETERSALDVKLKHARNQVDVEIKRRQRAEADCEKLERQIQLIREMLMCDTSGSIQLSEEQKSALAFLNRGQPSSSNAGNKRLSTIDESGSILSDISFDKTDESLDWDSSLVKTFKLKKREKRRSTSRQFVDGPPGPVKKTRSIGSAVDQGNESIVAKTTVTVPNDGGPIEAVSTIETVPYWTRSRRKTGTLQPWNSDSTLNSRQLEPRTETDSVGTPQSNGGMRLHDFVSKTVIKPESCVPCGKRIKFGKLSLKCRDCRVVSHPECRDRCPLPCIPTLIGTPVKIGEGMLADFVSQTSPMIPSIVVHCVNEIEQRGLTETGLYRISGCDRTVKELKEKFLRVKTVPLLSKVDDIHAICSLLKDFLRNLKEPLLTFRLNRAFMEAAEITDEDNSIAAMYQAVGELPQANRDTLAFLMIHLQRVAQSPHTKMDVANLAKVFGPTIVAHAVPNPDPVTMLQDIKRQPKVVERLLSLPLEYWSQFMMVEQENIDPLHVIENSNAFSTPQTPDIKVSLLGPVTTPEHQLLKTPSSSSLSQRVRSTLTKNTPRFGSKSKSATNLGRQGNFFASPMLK
# cells = assay type: functional
# Cytochrome P450 2D6 = Cytochrome P450 2D6 (Homo sapiens, UniProt P10635);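 also: CYP2D6 member of a cytochrome P450 panel assay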
# Sequence of Cytochrome P450 2D6 (P10635 whole entry): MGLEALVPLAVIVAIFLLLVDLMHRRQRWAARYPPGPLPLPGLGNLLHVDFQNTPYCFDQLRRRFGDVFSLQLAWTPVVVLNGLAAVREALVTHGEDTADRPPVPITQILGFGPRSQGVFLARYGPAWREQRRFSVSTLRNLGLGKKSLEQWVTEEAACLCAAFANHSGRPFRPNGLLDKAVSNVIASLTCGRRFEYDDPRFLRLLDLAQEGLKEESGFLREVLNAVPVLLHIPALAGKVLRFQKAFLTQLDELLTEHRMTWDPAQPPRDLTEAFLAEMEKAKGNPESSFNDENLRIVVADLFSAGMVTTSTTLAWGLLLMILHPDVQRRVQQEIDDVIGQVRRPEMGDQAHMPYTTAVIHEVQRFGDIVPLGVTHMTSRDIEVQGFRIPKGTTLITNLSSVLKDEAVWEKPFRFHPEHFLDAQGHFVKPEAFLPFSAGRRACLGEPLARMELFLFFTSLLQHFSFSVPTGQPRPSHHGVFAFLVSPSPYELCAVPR
# Cytochrome P450 2C19 = Cytochrome P450 2C19 (Homo sapiens, UniProt P33261); assay: Cytochrome panel assay with activity outcomes. Panel member name: p450-cyp2c19 Compounds with AC50 equal or less than 10 uM are considered active; assay type: functional
# Sequence of Cytochrome P450 2C19 (P33261 whole entry): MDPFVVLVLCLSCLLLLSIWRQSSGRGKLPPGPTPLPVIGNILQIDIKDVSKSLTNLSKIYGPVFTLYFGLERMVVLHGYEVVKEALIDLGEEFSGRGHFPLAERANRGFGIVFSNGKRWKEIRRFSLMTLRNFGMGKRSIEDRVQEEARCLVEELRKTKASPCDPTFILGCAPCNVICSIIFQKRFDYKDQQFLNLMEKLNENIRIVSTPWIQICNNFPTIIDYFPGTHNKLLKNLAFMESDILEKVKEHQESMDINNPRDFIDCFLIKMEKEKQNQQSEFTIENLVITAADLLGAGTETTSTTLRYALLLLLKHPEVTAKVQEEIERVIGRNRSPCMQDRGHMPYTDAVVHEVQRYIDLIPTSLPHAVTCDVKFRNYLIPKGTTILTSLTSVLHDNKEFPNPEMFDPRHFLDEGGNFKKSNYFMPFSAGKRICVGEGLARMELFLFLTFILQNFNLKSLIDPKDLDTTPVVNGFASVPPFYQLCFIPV
# Cytochrome P450 2C9 = Cytochrome P450 2C9 (Homo sapiens, UniProt P11712)
# Sequence of Cytochrome P450 2C9 (P11712 whole entry): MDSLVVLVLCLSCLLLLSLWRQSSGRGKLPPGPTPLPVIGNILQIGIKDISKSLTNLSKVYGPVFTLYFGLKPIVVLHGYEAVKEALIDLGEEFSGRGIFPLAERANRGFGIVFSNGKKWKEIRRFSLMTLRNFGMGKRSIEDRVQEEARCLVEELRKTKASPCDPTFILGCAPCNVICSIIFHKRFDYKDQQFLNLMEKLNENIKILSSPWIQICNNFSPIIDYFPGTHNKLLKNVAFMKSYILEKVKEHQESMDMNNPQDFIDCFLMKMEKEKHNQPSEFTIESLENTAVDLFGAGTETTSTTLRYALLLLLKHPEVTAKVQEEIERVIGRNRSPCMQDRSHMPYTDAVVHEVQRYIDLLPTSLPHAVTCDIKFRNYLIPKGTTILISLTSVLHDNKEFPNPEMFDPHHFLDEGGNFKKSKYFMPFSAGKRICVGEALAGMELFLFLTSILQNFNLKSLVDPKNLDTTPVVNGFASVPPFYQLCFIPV
# Cytochrome P450 3A4 = Cytochrome P450 3A4 (Homo sapiens, UniProt P08684);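 also: CYP3A4 tested as one member of a cytochrome P450 panel screen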
# Sequence of Cytochrome P450 3A4 (P08684 whole entry): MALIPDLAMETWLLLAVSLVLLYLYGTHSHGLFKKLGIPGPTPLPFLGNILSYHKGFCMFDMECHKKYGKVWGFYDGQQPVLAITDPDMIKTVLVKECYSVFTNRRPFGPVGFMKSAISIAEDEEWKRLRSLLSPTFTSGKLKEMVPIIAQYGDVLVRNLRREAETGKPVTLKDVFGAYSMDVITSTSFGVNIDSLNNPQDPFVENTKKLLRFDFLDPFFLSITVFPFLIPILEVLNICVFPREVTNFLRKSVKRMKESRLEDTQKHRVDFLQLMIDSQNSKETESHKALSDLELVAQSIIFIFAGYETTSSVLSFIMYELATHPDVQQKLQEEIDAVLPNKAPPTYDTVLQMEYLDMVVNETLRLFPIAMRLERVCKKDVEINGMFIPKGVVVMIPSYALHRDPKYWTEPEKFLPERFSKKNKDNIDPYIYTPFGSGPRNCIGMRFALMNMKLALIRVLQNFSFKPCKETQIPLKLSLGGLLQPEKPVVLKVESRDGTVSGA
# [6] = molecular target: T3, Corticotropin-releasing factor receptor 2/Corticotropin-releasing factor-binding protein (Homo sapiens, UniProt P24387+Q13324); assay: Dose Response confirmation of uHTS hits for small molecule antagonists of the CRF-binding protein and CRF-R2 receptor complex.; assay type: functional; conditions: read-out: IC50_Mean
# T3 sequence (Q13324 whole entry): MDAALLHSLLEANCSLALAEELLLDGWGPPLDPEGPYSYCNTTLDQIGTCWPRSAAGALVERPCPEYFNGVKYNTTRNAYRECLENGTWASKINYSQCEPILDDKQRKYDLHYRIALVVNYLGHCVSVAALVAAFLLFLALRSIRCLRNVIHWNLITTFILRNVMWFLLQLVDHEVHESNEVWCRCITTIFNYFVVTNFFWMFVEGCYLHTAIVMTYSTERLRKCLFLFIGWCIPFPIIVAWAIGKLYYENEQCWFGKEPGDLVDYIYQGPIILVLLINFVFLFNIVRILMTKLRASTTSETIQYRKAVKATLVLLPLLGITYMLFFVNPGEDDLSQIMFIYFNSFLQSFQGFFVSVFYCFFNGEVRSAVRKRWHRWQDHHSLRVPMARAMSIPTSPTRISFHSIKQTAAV
# T3 sequence (P24387 whole entry): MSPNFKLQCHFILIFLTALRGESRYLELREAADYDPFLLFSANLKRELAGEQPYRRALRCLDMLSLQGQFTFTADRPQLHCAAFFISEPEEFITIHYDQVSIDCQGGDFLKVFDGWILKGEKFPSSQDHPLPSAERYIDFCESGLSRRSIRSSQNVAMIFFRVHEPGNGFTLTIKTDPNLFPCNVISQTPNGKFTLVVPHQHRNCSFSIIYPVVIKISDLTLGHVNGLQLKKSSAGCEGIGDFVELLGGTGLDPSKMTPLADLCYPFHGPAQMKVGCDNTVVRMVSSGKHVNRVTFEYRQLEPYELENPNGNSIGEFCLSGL
# [7] = molecular target: T3, Corticotropin-releasing factor receptor 2/Corticotropin-releasing factor-binding protein; assay: activators of CRF receptor 2 with binding protein – uHTS hits, confirmation (AID 602473); assay type: functional; conditions: read-out: EC50_Mean
structure (smiles),measurement,setting,value
O=C1/C(=C/c2cccnc2)S/C(=N/Cc2ccccc2)N1Cc1ccccc1,EC50,[1],21.6 µM (active)
same,EC50,Streptokinase A,14.7 µM (active)
same,EC50,[2],1.66 µM (active)
same,EC50,[3],> 60 µM (not active)
same,EC50,Streptococcus,> 150 µM (not active)
CN(C)/C=N/c1ncc(C(=O)c2ccccc2)s1,EC50,[4],0.251 µM (active)
same,EC50,H4,119 µM (active)
COc1cc(/C=N/NC(=O)c2ccc(N3CCCC3=O)cc2)ccc1O,IC50,[5],30.8 µM (active)
COc1ccc(/C=C/c2ccc3cccc(O)c3n2)cc1Br,EC50,[1],0.796 µM (active)
same,EC50,Streptokinase A,> 150 µM (not active)
same,EC50,Streptococcus,13.5 µM (active)
CCOC(=O)C(C)(C)n1nnc(-c2ccc([N+](=O)[O-])cc2)n1,IC50,cells,45.9 µM (active)
O=C(NN=Cc1ccc(O)cc1O)c1ccccc1NS(=O)(=O)c1cccs1,IC50,[5],110 µM (active)
COc1ccc(-c2cc(=O)oc(-c3cccc(C)c3)n2)cc1,IC50,cells,35.9 µM (active)
COc1ccc(COC(=O)N/N=C2/C[C@@H](O)[C@@H](O)[C@@H]3[C@@H]4C(=O)N(c5cccc(Oc6ccccc6)c5)C(=O)[C@H]4CC[C@H]23)cc1,AC50,Cytochrome P450 2D6,2.51 µM (inconclusive)
CCCCNC(=O)Nc1nnc(-c2ccc(Cl)cc2)o1,IC50,cells,13.2 µM (active)
O=S(=O)(Nc1nc2ccccc2nc1Cl)c1ccc2ccccc2c1,EC50,[1],9.62 µM (active)
same,EC50,Streptokinase A,15.1 µM (active)
same,EC50,Streptococcus,> 150 µM (not active)
O=C(COc1ccc(Nc2ccccc2)cc1)OCC(=O)N1CCCCC1,IC50,cells,2.49 µM (active)
same,IC50,[5],98.2 µM (active)
CCOC(=O)c1[nH]c(COC(=O)CCOc2ccccc2OC)c(C(=O)OCC)c1C,AC50,Cytochrome P450 2D6,15.8 µM (inconclusive)
N#CCSc1nc2ccc(N3CCOCC3)cc2c(=O)n1CCc1ccccc1,EC50,[1],7.19 µM (active)
same,EC50,Streptokinase A,> 150 µM (not active)
same,EC50,Streptococcus,13.1 µM (active)
NNc1nc(-c2ccccc2)c2cc(Br)ccc2n1,EC50,[1],10.1 µM (active)
same,EC50,Streptokinase A,> 150 µM (not active)
same,EC50,Streptococcus,41.8 µM (active)
CCCC1CCC(c2ccc(C(N)=O)cc2)CC1 (stereo not drawn),AC50,Cytochrome P450 2C19,inconclusive
same,AC50,Cytochrome P450 2C9,0.0158 µM (inconclusive)
COC(=O)c1cc2c(ccc3ccccc32)oc1=O,IC50,cells,6.54 µM (active)
O/C(=C\C=N\c1ccccc1O)c1ccco1,IC50,cells,4.76 µM (active)
Clc1cc(Br)ccc1OCCOCCN1CCCC1,EC50,[2],1.46 µM (active)
same,EC50,[3],> 60 µM (not active)
same,IC50,[5],135 µM (active)
OC(COc1cccc2ccccc12)CN1CCN(c2cccc(Cl)c2)CC1 (stereo not drawn),EC50,[1],15.5 µM (active)
same,EC50,Streptokinase A,20.1 µM (active)
same,EC50,Streptococcus,31 µM (active)
COc1cc(CNCc2cccs2)ccc1OCC(=O)NC(C)(C)C,AC50,Cytochrome P450 2D6,10 µM (inconclusive)
Fc1cccc2sc(N3CCCC3)nc12,IC50,cells,> 50 µM (active)
O=c1c2ccccc2nc2oc3ccccc3n12,EC50,[4],0.123 µM (active)
same,EC50,H4,0.139 µM (active)
CCSc1ncc(/C=N/Nc2ccc(F)cc2)n1C,AC50,Cytochrome P450 2C19; read-out: AC50,0.0794 µM (inconclusive)
same,AC50,Cytochrome P450 3A4,1.58 µM (inconclusive)
O=C(Oc1ccccc1)c1ccc(NC(=O)c2ccco2)cc1,IC50,cells,4.4 µM (active)
same,IC50,[6],> 47.1 µM (inactive)
same,EC50,[7],> 53 µM (inactive)
Cc1cc(C)c(OCCCCN2CCC(C)CC2)c(Br)c1,IC50,[5],212 µM (active)
CCc1ccc(N(C(=O)CNC(=O)c2cccs2)C(C(=O)NC(C)(C)C)c2cc(OC)c(OC)c(OC)c2)cc1 (stereo not drawn),AC50,Cytochrome P450 2C19; read-out: AC50,0.00794 µM (inconclusive)
same,AC50,Cytochrome P450 2C9,28.2 µM (inconclusive)
O=C(CCNc1cccc(Cl)c1)c1cccs1,IC50,cells,20 µM (active)
same,AC50,Cytochrome P450 2D6,22.4 µM (inconclusive)
same,AC50,Cytochrome P450 2C9,20 µM (inconclusive)
O=C(c1cn(-c2ccccc2)nc1-c1cccs1)N1CCOCC1,AC50,Cytochrome P450 2C19; read-out: AC50,39.8 µM (inconclusive)
same,AC50,Cytochrome P450 2C9,39.8 µM (inconclusive)
Fc1ccc(CSc2nnc(-c3ccccn3)o2)cc1,EC50,[4],0.103 µM (active)
same,EC50,H4,0.175 µM (active)
O=C(CCCC(=O)c1ccccc1)Nc1ccc(O)cc1,IC50,[5],15.8 µM (active)
CC(C)(C)c1ccc(OCCC(=O)OCC(=O)NC2CC2)cc1,IC50,cells,48.5 µM (active)
CC(=O)n1c(COS(C)(=O)=O)nc2ccccc21,AC50,Cytochrome P450 2D6,5.01 µM (inconclusive)
same,AC50,Cytochrome P450 3A4,3.16 µM (inconclusive)
C/C(=N\NC(=O)c1cc2ccccc2cc1O)c1cccs1,EC50,[1],18.3 µM (active)
same,EC50,Streptokinase A,> 150 µM (not active)
same,EC50,[2],44.7 µM (active)
same,EC50,[3],> 60 µM (not active)
same,EC50,Streptococcus,59.6 µM (active)
COc1ccc(-c2cnnc(CCCn3ccnc3-c3ccccc3)n2)cc1,AC50,Cytochrome P450 2C19; read-out: AC50,7.94 µM (inconclusive)
same,AC50,Cytochrome P450 2C9,0.0126 µM (inconclusive)
CC1CCN(CCc2nc3cc(NC(=O)NC4CCCCC4)ccc3n2C)CC1,AC50,Cytochrome P450 2D6,25.1 µM (inconclusive)
CCOC(=O)C(=NCCOC)NNc1cc(Cl)ccc1Cl,IC50,cells,> 50 µM (active)
COc1ccc(OC(=O)c2cc(S(=O)(=O)N3CCCC3)ccc2Cl)cc1,IC50,[5],63 µM (active)
Cc1cc(OCc2ccc([N+](=O)[O-])cc2)c2c3c(c(=O)oc2c1)CCCC3,AC50,Cytochrome P450 2D6,3.16 µM (inconclusive)
same,AC50,Cytochrome P450 3A4,2.82 µM (inconclusive)
CCN(CC)c1ccc(NC(=O)COC(=O)CCC(=O)c2cccs2)cc1,IC50,[5],74.4 µM (active)
O=C(Nc1cccc(C(F)(F)F)c1)c1cc2c(=O)c3ccccc3oc2nc1C(F)(F)F,EC50,[1],18.7 µM (active)
same,EC50,Streptokinase A,43.3 µM (inconclusive)
same,EC50,Streptococcus,65.1 µM (active)
O=C(NCc1ccc(C(F)(F)F)cc1)c1ccc2c(c1)S(=O)(=O)c1ccccc1C2=O,EC50,[1],> 150 µM (not active)
same,EC50,Streptokinase A,> 150 µM (not active)
same,EC50,Streptococcus,> 150 µM (not active)
CCC[C@@H]1C[C@@]1(CCC)C(NS(=O)(=O)c1cccc2cccnc12)c1ccc(Cl)cc1 (stereo partly drawn),AC50,Cytochrome P450 2D6,39.8 µM (inconclusive)
O=C(CNC(=O)c1ccccn1)N/N=C/c1ccccc1,AC50,Cytochrome P450 2C19; read-out: AC50,17.8 µM (inconclusive)
CC(=O)Nc1cccc(-c2csc(NCc3ccccc3)n2)c1,IC50,[5],65 µM (active)

# Source: ChEMBL document CHEMBL1201862, “PubChem BioAssay data set” (2004)
